Data set [1] can be described thus: Estimated solubility of menadione in single solvents. The class given is physicochemical. On the procedure:
This study focused on evaluating the solubility properties of menadione in hydrophilic and lipophilic excipients used in topical pharmaceutical products. Initially, solubility studies were conducted in single solvents.

A short description of data set [2]: Menadione compatibility with single solvent systems (1% w/w solutions, 1 month storage). It counts as physicochemical. The method, then:
Based on the single solvent solubility data, a menadione compatibility study with selected solvents was conducted. Solutions containing 1% w/w of menadione were prepared, packaged in borosilicate clear glass vials, wrapped in aluminum foil and stored at 5° C. (dark), 25° C. (dark), and 40° C. (dark) for a period of 1 month. The physico-chemical properties of the 1% menadione single solvent solutions are presented in: Table 2.

The nature of data set [3]: In vitro percutaneous absorption of (14C)-Menadione Study #2, abraded skin. It counts as in vitro ADME, human. As to conditions: abraded skin versus normal skin. The method, then: Percutaneous absorption of (^14C)-Menadione was also evaluated using abraded human skin in the lead formulation at 0.05, 0.1, and 0.2% Menadione and the backup formulation at 0.2% Menadione. Abraded skin was evaluated as a possible simulation of the type of broken and/or compromised skin that may be present in the case of a skin rash caused by an EGFR inhibitor. The respective skin permeation values are presented in: Table 18.

Data set [4] relates to EGFR-mediated signaling. As to conditions: topical application, secondary to systemic erlotinib and cetuximab; cited from earlier work.
Data set [5] relates to EGFR and other growth factor-related phosphatase. As to conditions: cited from earlier work.

The structures appear in SMILES notation.

As for `CC1=CC(=O)c2ccccc2C1=O` [Menadione, 2-methyl-1,4-naphthoquinone], the “Estimated Solubility” value is “Greater than 10% w/w” in data set [1] (in Benzyl Alcohol); “Greater than 10% w/w” in data set [1] (in Dimethyl Isosorbide); “Less than 0.1% w/w” in data set [1] (in Mineral Oil); “Greater than 2% w/w” in data set [1] (in Polyethylene Glycol 400); “Less than 1% w/w” in data set [1] (in Propylene Glycol); “Less than 0.04% w/w” in data set [1] (in Purified Water). Further, the “Compatibility of menadione with solvent (physical appearance and potency by HPLC)” value in data set [2] (caprylic/capric triglyceride, diethyl sebacate, diisopropyl adipate, isopropyl myristate, 1 month at 5, 25, 40° C. dark) was “compatible”. Also, the “Compatibility of menadione with solvent (discoloration)” value in data set [2] (dimethyl isosorbide, transcutol and polyethylene glycol 400, all conditions evaluated) is on record as “signs of incompatibility”. For the same compound, in data set [3], the “Epidermal levels of the drug” value is on record as “lower”. The “EGFR-mediated signaling in human skin” value in data set [4] is “restore EGFR-mediated signaling”. Also, the EGF activating activity entry in data set [5] is “direct EGF activating activity”. Further, the “EGFR and other growth factor-related phosphatase inhibitory activity” value in data set [5] is reported as “inhibitory activity”.

The values above are taken from patent publication US8815953B2, “Formulations of vitamin K analogs for topical use” (Spectrum Pharmaceuticals, Inc., priority 2008, dated 2014).
